Experimental data as given in patent US10118947B2, “Modulation of structured polypeptide specificity” (BICYCLE THERAPEUTICS LIMITED, priority 2013, dated 2018).
Where two headings read alike, the source gives them in different places. Numbered stars: 1 amine (or outer) side, 2 acyl side, 3 side chain; on linkers, the order of the positions; unused ones are H or OH. Bridge positions count the residues as written; N and C are the ends. Square brackets hold non-standard residues; d marks the D form. Peptide text beside a SMILES is read from it. TBMB = c1c(C[*:1])cc(C[*:3])cc1C[*:2]; NMeR = CN[C@@H](CCCNC(=N)N)C(=O)O; hArg = N=C(N)NCCCC[C@H](N)C(=O)O; Aze = O=C(O)[C@@H]1CCN1

Legend:
[1] = Plasma stability profiling Method #1 (MALDI-TOF, 35% plasma), rat plasma; format: in vitro ADME; details: for stability in rat plasma compared to wildtype peptide: MALDI TOF assay (Methods #1 and #2), t=0, 21 and 46 hrs
In short: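 Qualitative test: 200 µM peptide incubated at 37 °C in 35% rat or human citrated plasma supplemented with PBS, sampled at 0, 3, 24 h then daily up to 10 days. Parent mass tracked by MALDI-TOF; value is time until parent peptide no longer detectable.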

[2] = Plasma stability profiling Method #1 (MALDI-TOF, 35% plasma), human plasma; format: in vitro ADME; details: MALDI TOF assay (Methods #1 and #2), t=0, 21 and 46 hrs
Experimental: A rapid plasma stability profiling assay was developed that employed mass spectrometric detection (MALDI-TOF, Voyager DE, Applied Biosystems) of the parent mass, until the time when the parent peptide mass was no longer observable. Specifically, 200 uM of peptide was incubated in the presence of 35% rat or human plasma (Sera labs, using citrate as anticoagulant) at 37 deg C., which was supplemented with 1×PBS (derived from a 10×PBS Stock, Sigma). […] Samples were frozen at −80 deg C. until the time of analysis. For mass spectrometric analysis that determines the approximate detection window of the peptide, the acetonitrile:H2O-diluted sample of a given time point was spotted directly (0.7 uL) onto the MALDI plate. Matrix (alpha-cyanocinnamic acid, Sigma, prepared as a saturated solution in 1:1 acetonitrile:water containing 0.1% trifluoroacetic acid) was layered over the sample (1 uL). At a similar laser intensity setting on the MALDI TOF, the time could then be determined until parent peptide was no longer detectable. It should be noted that this is a qualitative assay serves to detect relative changes in plasma stability.

[3] = Intravenous pharmacokinetics in Sprague Dawley rats; format: in vivo; details: rat; for half-life: iv, 5.2 mg/kg
Experimental: Peptides were applied as intravenous boli in PBS-buffered solution at 1.02 mg/mL (containing 2.9% DMSO) at 5.2 mg/kg to Sprague Dawley rats, and serial blood samples were taken from each animal via temporary indwelling tall vein cannulae at 5, 10, 20, 30, 60, 120, and 240 minutes post dose, and transferred to EDTA tubes for plasma generation. Data was acquired for peptide “all D Ac-06-34-18” from 3 rats, for “Ac-(06-34-18) Phe2 Aze3 Tyr4 HArg5 Ala(ψCH2NH)6” from two rats, and for “Ac-(06-34-18) Phe2 Aze3 Tyr4 HArg5 D-Asp9” from two rats.
Plasma samples were then treated with 3 volumes of a 1:1 mixture of acetonitrile and methanol, precipitated proteins were removed by centrifugation, and the supernatant was analysed by UPLC-MS/MS.
Quantification for peptide content in the samples was by reference to a calibration line prepared in control rat plasma. Pharmacokinetic parameters were determined by non-compartmental analysis using the software package PK Solutions 2.0 from Summit Research Services.

human plasma Kallikrein = molecular target: T1, human plasma Kallikrein (Homo sapiens, UniProt P03952); assay: Functional enzyme inhibition assay with fluorogenic substrate Z-PheArg-AMC, human plasma Kallikrein; format: biochemical; details: for F (Kivar/KiWT): ratio of Ki to wild type
T1 construct: purchased Stratech, UK
T1 sequence (P03952 20-638): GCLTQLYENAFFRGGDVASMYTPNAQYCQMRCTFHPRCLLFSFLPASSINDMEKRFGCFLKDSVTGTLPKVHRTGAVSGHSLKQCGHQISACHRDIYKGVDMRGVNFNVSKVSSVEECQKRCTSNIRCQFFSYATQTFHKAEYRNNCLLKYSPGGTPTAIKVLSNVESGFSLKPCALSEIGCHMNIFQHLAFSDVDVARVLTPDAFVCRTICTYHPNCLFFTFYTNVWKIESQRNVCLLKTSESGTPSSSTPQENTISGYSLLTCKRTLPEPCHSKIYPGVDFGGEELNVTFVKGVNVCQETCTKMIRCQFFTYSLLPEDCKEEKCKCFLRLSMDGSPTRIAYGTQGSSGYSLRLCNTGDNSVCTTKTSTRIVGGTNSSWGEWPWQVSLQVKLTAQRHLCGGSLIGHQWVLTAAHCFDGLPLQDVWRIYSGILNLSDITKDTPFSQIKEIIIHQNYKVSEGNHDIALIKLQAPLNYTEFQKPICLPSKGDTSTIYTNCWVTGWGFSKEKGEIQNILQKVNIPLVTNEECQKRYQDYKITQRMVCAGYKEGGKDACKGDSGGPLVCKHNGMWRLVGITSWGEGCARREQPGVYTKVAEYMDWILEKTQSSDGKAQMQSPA
In short: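 Rates of AMC release (excitation 360 nm, emission 460 nm) from 100 μM final Z-PheArg-AMC, 4% DMSO, were taken over the linear phase, typically 5 to 45 minutes. IC50 from four-parameter non-linear regression; Ki also derived.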

rat plasma Kallikrein [4] = molecular target: T2, rat plasma Kallikrein (Rattus norvegicus, UniProt P14272); assay: Functional enzyme inhibition assay with fluorogenic substrate Z-PheArg-AMC, rat plasma Kallikrein; format: biochemical; details: Table 26b, loop 1 and loop 2 modified derivatives
T2 construct: polyhistidine tag (N, cleaved yes); proTEV cleavage site (pro-peptide linker) (N, cleaved yes); made in house; host or cells: HEK-293 (suspension-adapted)
T2 sequence (P14272 391-638 limits assumed): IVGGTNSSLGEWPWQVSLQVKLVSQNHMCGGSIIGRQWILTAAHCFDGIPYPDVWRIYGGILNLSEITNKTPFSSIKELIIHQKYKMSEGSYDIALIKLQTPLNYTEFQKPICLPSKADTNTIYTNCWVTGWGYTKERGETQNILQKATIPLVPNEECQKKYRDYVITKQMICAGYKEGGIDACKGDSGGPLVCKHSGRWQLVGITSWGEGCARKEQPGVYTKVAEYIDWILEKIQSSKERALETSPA
Experimental: Functional enzyme assays were conducted in 10 mM Tris HCl, 150 mM NaCl, 10 mM MgCl2, 1 mM CaCl2) and 1 mg/mL BSA (all Sigma UK) pH7.4 at 25° C. in solid black 96 well plates. Briefly 26.5 pM human plasma Kallikrein (purchased from Stratech, UK) or 500 pM rat plasma Kallikrein (expressed and purified in house) were incubated in the absence or presence of increasing concentrations of test peptide for 15 minutes before addition of the fluorogenic substrate Z-PheArg-AMC (Enzo Lifesciences UK) to a final assay concentration of 100 μM in 4% DMSO. Release of AMC was measured using a Pherastar FS (BMG Labtech), excitation 360 nm, emission 460 nm. The rate of the linear phase of the reaction, typically 5 to 45 minutes, was calculated in MARS data analysis software (BMG labtech). The rate was then used to calculate the IC50 and Ki in Prism (GraphPad). A four parameter inhibition non-linear regression equation was used to calculate the IC50.
Peptides were dissolved as the TFA-salts in their powder form, and stock solutions were usually prepared in water. All solutions were centrifuged and filtered ([…] syringe filters) prior absorption measurement at 280 nm. Extinction coefficients were calculated based on the Trp/Tyr content of the peptide, and that of TMB (the TMB core, when contained in a peptide, has an ε of ˜300 M^−1cm^−1). For peptides containing non-natural amino acids with suspected chromophoric properties (i.e. NorHar, 4PhenylPro, 3Pal, 4Pal, Tic, 4GuanPhe, 4,4-BPAI, 3,3-DPA, 1NAI, 2NAI, 4BenzylPro, Ind) concentrations were determined by weighing the powder and dissolving the peptide in a defined quantity of water.

[5] = Quantitative plasma stability Method #3 (LC-MS, 95% plasma), rat plasma; format: in vitro ADME
Experimental: (§1) To obtain plasma stability quantitatively, peptide stock solutions (1 mM in DMSO) were shipped to Biofocus, UK, who performed the analysis. Peptides were diluted to 100 uM with water, and diluted 1:20 in plasma (5 uM final concentration, with the plasma at 95%), sampled as appropriate, precipitated as above, and quantified using a Waters Xevo TQ-MS.

[6] = Quantitative plasma stability Method #3 (LC-MS, 95% plasma), human plasma; format: in vitro ADME; details: Table 2, ex vivo human plasma, read-out: Human Plasma Stability (t½ in hrs) (converted)
Experimental: as §1

rat plasma Kallikrein [7] = molecular target: T2, rat plasma Kallikrein
[8] = Table 1; Method #1; cited from earlier work
[9] = Table 1; Method #3; cited from earlier work
[10] = Plasma stability / fragment profiling Method #2 (MALDI-TOF, 95% plasma), human plasma; format: in vitro ADME
In short: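 Peptide at 50 uM final in 95% human plasma without PBS; timed samples frozen at −80 °C, then extracted with 1:1 acetonitrile:methanol. Supernatant mixed with 30 mM ammonium bicarbonate and analysed by MALDI-TOF; qualitative fragment profiling of relative stability over time.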

human PK (hPK) = human PK (hPK) (Homo sapiens, UniProt P03952); details: cited from earlier work
Sequence of human PK (hPK) (P03952 20-638): as the sequence (P03952 20-638) above

rat PK = rat PK (Rattus norvegicus, UniProt P14272); details: highest concentration tested (10 μM); cited from earlier work
Sequence of rat PK (P14272 20-638): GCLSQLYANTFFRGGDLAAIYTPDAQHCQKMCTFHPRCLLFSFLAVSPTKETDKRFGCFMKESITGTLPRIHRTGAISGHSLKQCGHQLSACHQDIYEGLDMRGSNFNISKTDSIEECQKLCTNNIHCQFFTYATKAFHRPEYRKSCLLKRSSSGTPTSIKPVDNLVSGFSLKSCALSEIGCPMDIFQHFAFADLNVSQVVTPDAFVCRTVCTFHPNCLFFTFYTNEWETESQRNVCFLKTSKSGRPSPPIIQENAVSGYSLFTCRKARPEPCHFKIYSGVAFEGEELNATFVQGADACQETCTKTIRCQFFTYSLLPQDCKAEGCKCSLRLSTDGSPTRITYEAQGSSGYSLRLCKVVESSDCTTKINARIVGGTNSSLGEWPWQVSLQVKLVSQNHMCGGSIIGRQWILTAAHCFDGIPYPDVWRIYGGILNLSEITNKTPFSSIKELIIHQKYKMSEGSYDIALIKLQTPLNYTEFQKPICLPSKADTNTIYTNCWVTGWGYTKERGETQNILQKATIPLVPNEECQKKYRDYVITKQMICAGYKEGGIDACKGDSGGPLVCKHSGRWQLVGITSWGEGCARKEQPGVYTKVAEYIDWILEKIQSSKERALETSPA

factor XIa (hfXIa) = factor XIa (hfXIa) (Homo sapiens, UniProt P03951); details: highest concentration tested (10 μM); cited from earlier work
Sequence of factor XIa (hfXIa) (P03951 388-625 limits assumed): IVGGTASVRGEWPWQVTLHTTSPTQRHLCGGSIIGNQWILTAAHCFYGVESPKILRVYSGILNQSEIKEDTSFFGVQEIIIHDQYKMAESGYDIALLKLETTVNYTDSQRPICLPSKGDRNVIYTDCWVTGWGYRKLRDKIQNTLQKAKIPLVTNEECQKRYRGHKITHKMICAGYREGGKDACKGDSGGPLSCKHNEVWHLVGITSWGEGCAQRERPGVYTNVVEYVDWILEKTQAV
Sequence of factor XIa (hfXIa) (P03951 19-387 partner limits assumed): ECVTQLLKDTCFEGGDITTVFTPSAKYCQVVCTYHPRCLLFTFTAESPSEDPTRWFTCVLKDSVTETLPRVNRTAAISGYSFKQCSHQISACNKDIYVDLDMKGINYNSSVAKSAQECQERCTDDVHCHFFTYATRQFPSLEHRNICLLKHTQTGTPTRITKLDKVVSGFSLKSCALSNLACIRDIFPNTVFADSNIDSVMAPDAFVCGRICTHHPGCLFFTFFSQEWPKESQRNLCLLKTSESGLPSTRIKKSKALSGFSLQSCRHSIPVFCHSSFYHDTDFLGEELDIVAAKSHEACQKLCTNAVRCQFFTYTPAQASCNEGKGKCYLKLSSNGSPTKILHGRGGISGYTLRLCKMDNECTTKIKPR

thrombin = thrombin (Homo sapiens, UniProt P00734); details: highest concentration tested (10 μM); cited from earlier work
[11] = Sprague Dawley, plasma, intravenous bolus 5.2 mg/kg, read-out: elimination half-life
[12] = Sprague Dawley, plasma, intravenous, read-out: t1/2 elimination
[13] = Table 23, comparative stabilities estimated according to method #1
[14] = rat plasma (95%), Table 2, ex vivo rat plasma, Method #3, read-out: Rat Plasma Stability (t½ in hrs) (converted)
[15] = Table 1; read-out: Ki (nM) (rat kallikrein); cited from earlier work

| stability in rat plasma compared to wildtype peptide [1] | stability in human plasma compared to wildtype peptide [2] | half-life [3, 11] | half-life [3, 12] | Molecule | Observable in rat plasma, for days [1, 13] | t1/2 (hrs) in rat plasma ([5]; Table 23, method #3) | half-life at 5 uM [5, 14] | half-life at 5 uM ([6]; human plasma (95%)) | Ki (rat plasma Kallikrein [7]; [15]) | Observable in rat plasma, for days [8] | t1/2 (hrs) in rat plasma [9] | other results |
| --- | --- | --- | --- | --- | --- | --- | --- | --- | --- | --- | --- | --- |
| remarkably enhanced stability | remarkably enhanced stability | 0.8 h | 0.8 h | CC(=O)N[C@H]1CSCc2cc3cc(c2)CSC[C@H](NC(=O)[C@H](CCCCNC(=N)N)NC(=O)[C@H](Cc2ccc(O)cc2)NC(=O)[C@@H]2CCN2C(=O)[C@H](Cc2ccccc2)NC(=O)[C@H](CO)NC1=O)C(=O)N[C@@H](C)CN[C@@H](Cc1c[nH]cn1)C(=O)N[C@@H](CCC(N)=O)C(=O)N[C@@H](CC(=O)O)C(=O)N[C@@H](CC(C)C)C(=O)N[C@H](C(N)=O)CSC3 | – | – | – | – | – | – | – | clearance ([3]; Sprague Dawley, plasma, intravenous bolus 5.2 mg/kg): 5.8 mL/min/kg; Clearance based on AUC0-∞ ([3]; intravenous): 6.2 mL/min/kg; Volume of distribution based on AUC0-∞ ([3]; intravenous): 0.44 L/kg |
| remarkably enhanced stability | remarkably enhanced stability | ~0.45 h | 0.45 h | CC(=O)N[C@H]1CSCc2cc3cc(c2)CSC[C@H](NC(=O)[C@H](CCCCNC(=N)N)NC(=O)[C@H](Cc2ccc(O)cc2)NC(=O)[C@@H]2CCN2C(=O)[C@H](Cc2ccccc2)NC(=O)[C@H](CO)NC1=O)C(=O)N[C@@H](CC(C)C)C(=O)N[C@@H](Cc1c[nH]cn1)C(=O)N[C@@H](CCC(N)=O)C(=O)N[C@H](CC(=O)O)C(=O)N[C@@H](CC(C)C)C(=O)N[C@H](C(N)=O)CSC3 (Ac-CSF[Aze]Y[hArg]CLHQ[dD]LC-NH2; linker 1-7-13 via TBMB) | – | – | – | – | – | – | – | Ki (human plasma Kallikrein; Table 26b, loop 1 and loop 2 modified derivatives, read-out: Ki (nM) (human kallikrein)): 0.9 nM; Ki (rat plasma Kallikrein [4]): 14 nM |
| – | – | – | – | CC(=O)N[C@H]1CSCc2cc3cc(c2)CSC[C@H](NC(=O)[C@H](CCCCNC(=N)N)NC(=O)[C@H](Cc2ccc(O)cc2)NC(=O)[C@@H]2CCCN2C(=O)[C@H](Cc2ccccc2)NC(=O)[C@H](CO)NC1=O)C(=O)N[C@@H](CC(C)C)C(=O)N[C@@H](Cc1c[nH]cn1)C(=O)N[C@@H](CCC(N)=O)C(=O)N[C@@H](CC(=O)O)C(=O)N[C@@H](CC(C)C)C(=O)N[C@H](C(N)=O)CSC3 [Ac-(06-34-18) Phe2 Tyr4 HomoArg5] (Ac-CSFPY[hArg]CLHQDLC-NH2; linker 1-7-13 via TBMB) | >10 days | 12.2 h | 12.2 h | 2.1 h | 16.2 nM | >10 days | 12.2 h | rat plasma stability enhanced by a factor ([5]; compared to parent Phe2 Tyr4 peptide): 13 |
| – | – | – | – | CC(=O)N[C@H]1CSCc2cc3cc(c2)CSC[C@H](NC(=O)[C@H](CCCNC(=N)N)N(C)C(=O)[C@H](Cc2ccc(O)cc2)NC(=O)[C@@H]2CCCN2C(=O)[C@H](Cc2ccccc2)NC(=O)[C@H](CO)NC1=O)C(=O)N[C@@H](CC(C)C)C(=O)N[C@@H](Cc1c[nH]cn1)C(=O)N[C@@H](CCC(N)=O)C(=O)N[C@@H](CC(=O)O)C(=O)N[C@@H](CC(C)C)C(=O)N[C@H](C(N)=O)CSC3 [Ac-(06-34-18) Phe2 Tyr4 NMeArg5] (Ac-CSFPY[NMeR]CLHQDLC-NH2; linker 1-7-13 via TBMB) | >10 days | – | > 20 h | 1.7 h | 64.3 nM | >10 days | >20 h | Ki (human plasma Kallikrein; Table 2, read-out: Ki (nM) human Kai): 4 nM; half-life at 5 uM ([5]; rat, plasma, Table 23, method #3, read-out: t1/2 (hrs) in rat plasma (converted)): > 20 h |
| – | – | – | – | CC(=O)N[C@H]1CSCc2cc3cc(c2)CSC[C@H](NC(=O)[C@H](CCCNC(=N)N)NC(=O)[C@H](Cc2ccc(O)cc2)NC(=O)[C@@H]2CCCN2C(=O)[C@H](Cc2ccccc2)NC(=O)[C@H](CO)NC1=O)C(=O)N[C@@H](CC(C)C)C(=O)N[C@@H](Cc1c[nH]cn1)C(=O)N[C@@H](CCC(N)=O)C(=O)N[C@@H](CC(=O)O)C(=O)N[C@@H](CC(C)C)C(=O)N[C@H](C(N)=O)CSC3 [Ac-(06-34-18) Phe2 Tyr4] (Ac-CSFPYRCLHQDLC-NH2; linker 1-7-13 via TBMB) | 2 days | 0.9 h | – | – | – | 2 days | 0.9 h | Ki (human plasma Kallikrein; Ki (nM) (human kallikrein), Table 26a, loop2 stability enhanced candidates): 0.9 nM; Ki (human plasma Kallikrein; Ki (nM) human Kai, Table 2): 0.42 nM; F (Kivar/KiWT) (human plasma Kallikrein; Table 3a): 1; F (Kivar/KiWT) (human plasma Kallikrein; Table 24b): 1; Observable in rat plasma, for days ([1]; Table 21, method #1): 2 days; Fragments (human plasma) ([10]; Table 3a, peptide fragments observed after incubation in human plasma): -LHQ; degradation / fragments in human plasma (in words) ([10]; running text and figure legends): fragments with His7-Gln8, Leu6, and Leu6-His7-Gln8 removed; Rat Plasma Stability (t½ in hrs) ([5]; Table 2, ex vivo rat plasma, Method #3): 0.9 h; half-life at 5 uM ([5]; rat, plasma, method #3, read-out: half-life in rat plasma (t1/2) (converted)): 0.9 h; half-life at 5 uM [6]: 1.4 h; Ki (rat plasma Kallikrein [7]; read-out: Ki (nM) (rat kallikrein); Table 1; cited from earlier work): 7.6 nM |
| – | – | – | – | H-ACSDRFRNCPADEALCG-NH2 [PK15] | – | – | – | – | – | – | – | Ki (human PK (hPK); Heinis et al. 2009, read-out: Kl human PK (hPK)): 3 nM; IC50 (human PK (hPK); background, read-out: IC50 binding constant for human Kallikrein): 1.7 nM; inhibition of rat PK (rat PK): did not inhibit; inhibition of factor XIa (hfXIa) (factor XIa (hfXIa)): did not inhibit; inhibition of thrombin (thrombin): did not inhibit |
